Columns and labels:
[1] = test system: PBMCs; assay: Cytokine secretion from PBMCs (cytometric bead assay); format: cell-based, human; settings: 2 days
Experimental: FIG. 11: Chemokine RANTES secretion (as measured by cytometric bead assay) from PBMC or macrophages stimulated with indicated compound for 48 h.
FIG. 12: IL12p70 secretion (as measured by cytometric bead assay) from PBMC or macrophages stimulated with indicated compound for 48 h.
FIG. 13: IL1 b secretion (as measured by cytometric bead assay) from PBMC, macrophages or CD4 T cells stimulated with indicated compound for 48 h.
Study 10: PBMCs and macrophages where exposed to compounds 1 or 2 for 2 days (FIG. 11).
Study 11: PBMCs and macrophages where exposed to compounds 1 and 2 for 2 days.
Study 12: PBMCs, macrophages and CD4+ T cells where exposed to compounds 1 and 2 for 2 days.

[2] = test system: C57bl/6 mice; assay: MHC class I expression on CD11b+ splenocytes of mice after i.v. injection; format: in vivo; settings: spleen removed 24 h later
Experimental: FIG. 15: % MHC class I high CD11 b+ cells in spleen of 3 individual C57bl/6 mice injected 24 h previously with indicated compound. MHC class I and CD11 b expression was measured by flow cytometry.
Study 14: Compound 1 or 2 was administered i.v. to C57bl/6 mice.

[3] = test system: E. coli, S. salivarius, L. casei, B. longum, M. luteus; assay: MIC assay, summary over all bacterial strains tested; format: cell-based; settings: any of the strains tested
Experimental: The bioactivity of macrolide compounds against 4 strains of common gut bacteria (Escherichia coli, Streptococcus salivarius subsp. salivarius, Lactobacillus casei and Bifidobacterium longum subsp. infantis) and common mammalian skin isolate Micrococcus luteus, was assessed using the Minimum Inhibitory Concentration (MIC) assay. Bacterial strains were purchased from DSMZ (Brunswick, Germany) except M. luteus which was obtained from NCIMB, and stored in 20% glycerol at −80° C. Stock solutions (100% DMSO) of positive controls (azithromycin and erythromycin), and of test compounds 1 and 2 were diluted in broth to working stock concentrations of 256 μg/ml (final assay testing concentration range 128 μg/ml to 0.00391 μg/ml). Stock solutions of all other compounds were diluted in broth to working stock concentrations of 128 μg/ml (final assay testing concentration range 64 μg/ml to 0.00195 μg/ml). Bacterial strains were cultivated in appropriate broth in an anaerobic chamber at 37° C., except for M. luteus which was incubated aerobically at 37° C. 18 h cultures were diluted in broth to an OD595 of 0.1 and then further diluted 1:10. In 96-well plates, in duplicate, 200 μl working stock of test compound was transferred to well 1 and serially diluted (1:2) in broth. 100 μl bacterial suspension was aliquoted into each well and mixed thoroughly. Appropriate sterility controls were included and plates were incubated in an anaerobic chamber, or aerobically (M. luteus) at 37° C. for 18 h. The MIC was determined to be the concentration of test compound in the first well with no visible growth.

CC[C@H]1OC(=O)[C@H](C)[C@@H](O[C@H]2C[C@@H](N(C)C)[C@H](O)[C@@H](C)O2)[C@H](C)[C@@H](O)[C@](C)(O)C[C@@H](C)CN(C)[C@H](C)[C@@H](O)[C@]1(C)O [Compound 1]
IL-1 beta secretion in PBMCs [1]: slightly
IL-12p70 secretion from PBMCs [1]: secreted IL-12p70
splenocyte cells with high MHC I expression (CD11b+) [2]: induced an increase
antibacterial activity against the bacterial strains tested (in words) [3]: no antibacterial activity
